In patent US6365625B1, “Compound for inhibiting HIV infectivity” (Procept, Inc., priority 1993, dated 2002):
≈ marks a conversion by molar mass, not a printed value. Where two headings read alike, the source gives them in different places.

Experiments:
HIV-1 (JR-CSF) = type: cell-based
HIV-1 (ADA) = test: microbe, parasite or virus in culture; type: cell-based; conditions: Human immunodeficiency virus 1, Monocyte, monocytes
HIV-1 14aPre = test: Drug combination studies, neutralization of HIV-1 14aPre; type: cell-based
[1] = system: gp120-mediated syncytium formation; test: Inhibition of gp120-mediated syncytium formation (HL2/3 and HeLa-CD4-LTR-β-gal cells); conditions: 48 hours; PIC 024.4 based on 100% polymer by weight
Procedure: The effect of test compound on syncytium formation was evaluated using an assay developed by Dr. George Pavlakis and coworkers (Ciminale, V. et al., AIDS Res. Hum. Retro-viruses 6:1281-1287 (1990)). […] The cultures were then incubated in the presence of drug for 48 hours at 37° C., fixed and stained with X-gal. Blue syncytia were counted using an inverted microscope, and percent inhibition and IC50 values were calculated.

gp120/CD4 = target: T1, gp120/CD4 (Homo sapiens, UniProt P01730); test: biochemical; type: binding
T1 construct: recombinant, soluble four-domain CD4 (sCD4) expressed in insect cells; host or cells: insect cells (sCD4)
Procedure: Polystyrene 96-well microtiter plates were treated with a 1 μg/ml solution of recombinant, soluble four-domain CD4 (sCD4) expressed in insect cells (100 μl/well) and allowed to incubate for two hours at room temperature. Plates were blocked for two hours at 4° C. with phosphate-buffered saline (PBS) containing 0.05% Tween-20 and 10 mg/ml bovine serum albumin (PBSTB, 200 μl/well), and then washed five times with PBS containing 0.05% Tween-20. Fifty microliters of 60 ng/ml recombinant gp120 (IIIB isolate) and 50 μl of each drug dilution in PBSTB were added to duplicate wells, and the plate was incubated overnight at 4° C. The plate was then washed five times with PBST and treated with a 210 μg/ml solution of monoclonal antibody NEA 9205 (100 gp120-III/well). This antibody recognizes the V3 loop region of gp120-IIIB. After incubation for 2 hours at 4° C., the plate was washed five times with PBST and treated with an anti-mouse IgGl antibody conjugated to alkaline phosphatase. After an additional incubation for 1 hour at 4° C., the plate was washed five times with PBST, treated with a p-nitrophenyl phosphate substrate solution, incubated for about 30 minutes at room temperature, and monitored for color development at 405 nm. […]

[2] = target: T2, Leu3A binding to recombinant sCD4 (Homo sapiens, UniProt P01730); test: Inhibition of monoclonal antibody Leu3A binding to CD4 (ELISA); conditions: antibody 30 ng/ml; read-out: IC50 MAb binding inhibition, Leu3A (converted)
T2 construct: Plates coated with recombinant, soluble CD4 were treated with antibody
Procedure: (§1) A panel of related ELISA systems was used to evaluate the effect of test compounds on the binding of various monoclonal antibodies to recombinant sCD4 absorbed on plastic. Two of these antibodies, Leu3A and 19Thy, are directed against gp120 binding site on CD4. […] The ELISA formats were similar to those used to measure gp120 binding to CD4. Plates coated with recombinant, soluble CD4 were treated with antibody (30 ng/ml) and serial dilutions of drug. After incubation and washing, bound antibody was detected using an appropriate isotype-specific anti-immunoglobulin alkaline phosphatase conjugate.

[3] = target: T3, 19Thy binding to recombinant sCD4 (Homo sapiens, UniProt P01730); test: Inhibition of monoclonal antibody 19Thy binding to CD4 (ELISA); conditions: antibody 30 ng/ml; read-out: IC50 MAb binding inhibition, 19Thy (converted)
T3 construct: Plates coated with recombinant, soluble CD4 were treated with antibody
Procedure: as §1

[4] = target: T4, OKT4 binding to recombinant sCD4 (Homo sapiens, UniProt P01730); test: Inhibition of monoclonal antibody OKT4 binding to CD4 (ELISA); conditions: antibody 30 ng/ml
T4 construct: Plates coated with recombinant, soluble CD4 were treated with antibody
Procedure: as §1

[5] = target: T5, gp120 binding to CD4 receptor on CEM cells (Homo sapiens, UniProt P01730); type: cell-based; conditions: recombinant gp120 (IIIB) 10 nM; PIC 024.4 based on 100% polymer by weight
T5 construct: the CD4 receptor expressed on the surface of lymphocytic cells; endogenous in cells; host or cells: CEM cells
Procedure: This assay was used to measure the ability of test compounds to inhibit the binding of recombinant gp120 to the CD4 receptor expressed on the surface of lymphocytic cells. Cells of the CEM line (a CD4+ human T cell leukemia line) were suspended at 3×10^6 cells/ml in RPMI 1640 medium supplemented with 10% fetal bovine serum (FBS) containing 0.002% sodium azide, and 100 μl was aliquoted to individual assay tubes. Serial dilutions of test compound in water were added (10 μl/tube) and the tubes incubated for 2 hours at 25° C. Next, recombinant gp120 (IIIB isolate) diluted in RPMI 1640 buffer was added to a final concentration of 10 nM (1.2 μg/ml) and the tubes incubated overnight at 37° C. Cells were then washed thoroughly with PBS containing 10% FBS and 0.01% sodium azide. V3-specific monoclonal antibody NEA9284 was added to a concentration of 1 μg/ml and incubated for 30 minutes on ice. The cells were washed thoroughly as before and stained with fluorescein-labeled goat anti-mouse immunoglobulin for 30 minutes on ice. The washed cells were analyzed for mean fluorescence on a FACScan™ flow cytometer (Becton Dickinson). Percent inhibition of fluorescence was determined relative to cells that were not treated with drug.

[6] = target: T6, gp120 binding to CD4 receptor on lymphocytes in whole blood (Homo sapiens, UniProt P01730); type: cell-based; conditions: gp120-biotin 10 nM
T6 construct: the CD4 receptor expressed on the surface of lymphocytes in whole blood; from tissue; host or cells: freshly collected anticoagulated whole blood from normal donors
Procedure: This assay was used to measure the ability of test compounds to inhibit the binding of recombinant gp120 to the CD4 receptor expressed on the surface of lymphocytes in whole blood. Freshly collected, anticoagulated whole blood from normal donors (100 μl per tube) was treated with test compound and incubated for 2 hours at room temperature. The tubes were then treated with gp120-biotin (American Bio-Technology Products) to a final concentration of 10 nM, and incubated for an additional 3 hours at room temperature. Cells were then stained with fluorescein-labeled streptavidin (Becton Dickinson), treated with lysis buffer (Becton Dickinson), and washed with PBS containing 0.1% azide. Cells were then subjected to flow cytometric analysis on a FACScan™ flow cytometer (Becton Dickinson) and the mean fluorescence for the lymphocyte population was measured. Percent inhibition of fluorescence was determined relative to cells that were not treated with drug.

gp120 (SF2 isolate)/sCD4 = target: T7, gp120 (SF2 isolate)/sCD4 (Homo sapiens, UniProt P01730); type: binding
T7 construct: recombinant sCD4 was immobilized to the sensor surface
From the text: This assay provided a direct measure of the ability of test compounds to inhibit the gp120/CD4 binding interaction. The BIAcore™ biosensor (Pharmacia Biosensor) allows for real-time interaction analysis without the need for labeling (Jonsson et al., BioTechniques 11:620-627 (1991); Malmquist, Nature 361:186-198 (1993)). Its operation is based on optical surface plasmon resonance (SPR) for detecting small changes in the refractive index on the surface of a thin gold film coated with a dextran matrix to which one ligand is immobilized. In the experiments described here, recombinant sCD4 was immobilized to the sensor surface by a standard amine coupling chemistry. Recombinant gp120 (SF2 isolate), alone or in the presence of test compound, was passed over the surface, and binding monitored by a change in “resonance units” (RU's). Percent inhibition was determined relative to RU levels observed in the absence of drug. A correction was made to account for the mass of the test article.

IIIB = conditions: cited from earlier work
monocytotropic isolates = conditions: cited from earlier work
HIV-1, strain HTLV-IIIB = type: cell-based; conditions: CEM-T4 cells, day 8; PIC 024.4 30% polymer by weight
Procedure: Dilutions were prepared in culture medium, and the compound was tested at concentrations ranging from 100 μg/ml to 0.003 μg/ml in half-log10 dilutions.
The assay was done in 96-well tissue culture plates using the CEM-T4 human T-lymphocyte cell line. The culture medium used was RPMI-1640 medium containing 25 mM N-[2-Hydroxyethyl]piperazine-n^1-[2-ethanesulfonic acid] (HEPES, Sigma Chemical Co.) and 2 mM L-glutamine, and supplemented with 10% fetal bovine serum, 2 mM L-glutamine, 50 units of penicillin G per ml, and 50 μg streptomycin sulfate per ml. CEM-T4 cells were treated with polybrene at a concentration of 2 μg/ml, and a 130 μl volume of cells (1×10^4 cells) was dispensed into each well. To one assay plate for each drug a 50 μl volume of each drug dilution (prepared as a 4×concentration) was added to five wells of cells, and the cells were incubated at 37° C. for two hours. […]
On the eighth day post-infection, the cells in each well were suspended and a 50-μl sample of each cell suspension was transferred to a new 96-well plate for use in the following assay. […] The absorbance at 590 nm was determined for each sample using a Molecular Devices Vmax microplate reader. […] When a dose-dependent effect for either CPE-inhibition or toxicity was seen, values for the 50% effective dose were calculated using the dose-effect analysis software of Chou and Chou (Elsevier-Biosoft).

With `Cc1cn([C@H]2C[C@H](N=[N+]=[N-])[C@@H](CO)O2)c(=O)[nH]c1=O` [AZT, zidovudine] the p24 levels (HIV-1 (JR-CSF); 0.004-50 μM, drug added 2 hours prior to infection) was “substantially reduced”, the “Antiviral Activity ID50, JR-CSF” value (HIV-1 (JR-CSF); PHA blasts, PIC 024.4 30% polymer by weight) was 1 ng/mL and the EC50 (HIV-1 (ADA); 168 h, read-out: EC50, Day 7) was 5 ng/mL (≈ 0.0187 µM). The EC90 (HIV-1 (ADA); 168 h, read-out: EC90, Day 7) was 0.02 µg/mL (≈ 0.0748 µM), the EC50 (HIV-1 (ADA); 336 h, read-out: EC50, Day 14) was 3 ng/mL (≈ 0.0112 µM) and the EC90 (HIV-1 (ADA); 336 h, read-out: EC90, Day 14) was 0.01 µg/mL (≈ 0.0374 µM). The “Table 8 readout of HIV-1 14aPre growth” value (HIV-1 14aPre; AZT 0.005 μM alone) was 25, the “Table 8 readout of HIV-1 14aPre growth” value (HIV-1 14aPre; AZT 0.01 μM alone) was 17.5 and the “Table 8 readout of HIV-1 14aPre growth” value (HIV-1 14aPre; AZT 0.02 μM alone) was 9.8. For the same molecule, the “IC50 syncytium inhibition (HL2/3)” value [1] was “inactive”.
Molecule `O=C(O)C1=CC(=C(c2ccc(O)c(C(=O)O)c2)c2ccc(O)c(C(=O)O)c2)C=CC1=O` [Aurintricarboxylic acid] has an IC50 (gp120/CD4) of roughly 2370 nM, an IC50 [2] of 294 µM and an IC50 [3] of 206 µM. The “IC50 MAb binding inhibition, OKT4” value [4] was “did not affect”.
For dextran sulfate, the “IC50 gp120/CEM binding inhibition” value [5] was 23 µg/mL, the “IC50 gp120/CD4 binding inhibition (ELISA)” value (gp120/CD4; recombinant gp120 IIIB, recombinant sCD4, PIC 024.4 based on 100% polymer by weight) was “inactive” and the “IC50 gp120/whole blood binding inhibition” value [6] was no less than 1000 µg/mL. For the same molecule, the “IC50 BIAcore inhibition” value (gp120 (SF2 isolate)/sCD4) was “inactive”, the “Antiviral Activity ID50, IIIB” value (IIIB; AHT 8) was 8 µg/mL and the “Antiviral Activity ID50, IIIB” value (IIIB; TM 11) was 4 µg/mL. For the same molecule, the “activity against many monocytotropic isolates” value (monocytotropic isolates) was “inactive” and the “IC50 syncytium inhibition (HL2/3)” value [1] was 0.9 µg/mL.
For `OC[C@@H]1CC[C@H](n2cnc3c(O)ncnc32)O1` [ddI, 2′,3′-Dideoxyinosine], the “Antiviral Activity ID50, IIIB” value (HIV-1, strain HTLV-IIIB) was 1.2 µg/mL, the “Table 8 readout of HIV-1 14aPre growth” value (HIV-1 14aPre; DDI 1.25 μM alone) was 36.5 and the “Table 8 readout of HIV-1 14aPre growth” value (HIV-1 14aPre; DDI 5 μM alone) was 11.2. The “Table 8 readout of HIV-1 14aPre growth” value (HIV-1 14aPre; DDI 10 μM alone) was 1.2.
